Measured values published in patent US12662451B2, “Chemical compounds and uses thereof” (GLAXOSMITHKLINE INTELLECTUAL PROPERTY (NO.4) LIMITED, priority 2023, dated 2026).

Tests used:
[1] = molecular target: T1, recombinant full-length WRN protein (1-1432) (Homo sapiens, UniProt Q14191); assay: WRN unwinding activity, fluorogenic 384-well assay (Example A); format: biochemical; details: WRN unwinding activity, 4 hr; Table 2; read-out: 4 hr UNW pIC50 (converted)
T1 construct: recombinant full-length WRN protein (1-1432)
T1 sequence (Q14191 whole entry): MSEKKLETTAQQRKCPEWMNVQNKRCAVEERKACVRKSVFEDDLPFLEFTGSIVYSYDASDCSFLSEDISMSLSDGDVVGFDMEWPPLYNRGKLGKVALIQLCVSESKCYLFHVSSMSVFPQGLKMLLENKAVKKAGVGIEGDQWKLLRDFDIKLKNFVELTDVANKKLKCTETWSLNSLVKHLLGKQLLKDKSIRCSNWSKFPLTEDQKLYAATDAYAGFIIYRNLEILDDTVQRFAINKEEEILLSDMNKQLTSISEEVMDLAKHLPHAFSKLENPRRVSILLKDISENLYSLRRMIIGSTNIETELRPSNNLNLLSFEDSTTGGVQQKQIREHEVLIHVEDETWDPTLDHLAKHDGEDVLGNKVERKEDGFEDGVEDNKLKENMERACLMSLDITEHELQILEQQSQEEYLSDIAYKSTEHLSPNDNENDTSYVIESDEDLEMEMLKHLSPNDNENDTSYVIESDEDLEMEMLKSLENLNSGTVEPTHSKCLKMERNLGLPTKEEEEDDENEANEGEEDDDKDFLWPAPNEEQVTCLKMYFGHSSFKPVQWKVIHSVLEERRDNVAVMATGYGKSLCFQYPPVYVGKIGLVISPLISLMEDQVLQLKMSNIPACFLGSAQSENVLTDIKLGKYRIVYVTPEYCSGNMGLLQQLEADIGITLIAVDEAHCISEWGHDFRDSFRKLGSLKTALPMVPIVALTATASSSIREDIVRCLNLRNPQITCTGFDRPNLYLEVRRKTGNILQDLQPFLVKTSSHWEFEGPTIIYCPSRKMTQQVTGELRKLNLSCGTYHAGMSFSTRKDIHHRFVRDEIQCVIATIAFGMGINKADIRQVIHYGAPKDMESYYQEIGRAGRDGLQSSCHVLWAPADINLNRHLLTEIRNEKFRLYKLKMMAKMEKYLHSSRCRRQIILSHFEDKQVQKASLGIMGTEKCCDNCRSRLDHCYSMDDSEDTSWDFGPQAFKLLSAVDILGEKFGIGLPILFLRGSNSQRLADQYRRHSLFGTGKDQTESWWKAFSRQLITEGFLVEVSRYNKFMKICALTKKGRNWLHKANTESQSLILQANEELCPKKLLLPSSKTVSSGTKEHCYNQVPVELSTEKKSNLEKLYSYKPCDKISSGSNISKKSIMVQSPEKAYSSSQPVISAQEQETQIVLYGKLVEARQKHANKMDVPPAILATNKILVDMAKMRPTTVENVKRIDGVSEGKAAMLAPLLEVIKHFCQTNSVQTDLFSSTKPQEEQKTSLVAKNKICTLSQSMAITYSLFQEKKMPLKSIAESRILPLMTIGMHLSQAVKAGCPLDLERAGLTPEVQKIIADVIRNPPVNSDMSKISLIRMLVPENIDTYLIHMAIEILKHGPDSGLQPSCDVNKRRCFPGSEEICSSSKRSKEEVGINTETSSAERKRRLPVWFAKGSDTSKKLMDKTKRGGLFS
Outline: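 Read-out is end-point unwinding of a fluorophore/quencher duplex (ex 525, em 598 nm) after 60 min with 200 μM ATP and 12 nM DNA (2× stocks), EDTA stop. Compound first sat 4 h with 200 pM WRN (2× stock) in pH 8.0 Tris buffer; four-parameter fit gives pIC50.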

[2] = test system: SW48 human colorectal cancer cells (MSI-H cancer cells); assay: SW48 cell viability, CellTiter-Glo, 120 hours (Example B); details: Table 2; for CC50: Homo sapiens, SW48, 120 h, read-out: SW48 pCC50, SW48 cell viability, 120 hours incubation (converted); for SW48 pCC50: SW48 cell viability, 120 hours incubation

Row | Compound | IC50 [1] [nM] | CC50 [2] [µM] | SW48 pCC50 [2]
1 | CN(c1ccc([C@H]2CCC[C@@H](C(=O)Nc3ccc(C(F)(F)F)cc3F)[C@@H]2C(=O)O)cc1)S(=O)(=O)c1ccc2nc(O)sc2c1 [Example 102, (1R,2R,6S)-2-((2-fluoro-4-(trifluoromethyl)phenyl)carbamoyl)-6-(4-((2-hydroxy-N-methylbenzo[d]thiazole)-6-sulfonamido)phenyl)cyclohexane-1-carboxylic acid] | 6.31 | 10 | –
2 | [2H]C([2H])([2H])O[C@@H]1C[C@H](c2ccc(N(C)S(=O)(=O)c3ccc4c(c3)nc(C)n4C)cc2)[C@@H](C(=O)O)[C@H](C(=O)Nc2ccc(C(F)(F)F)cc2F)C1 (single isomer, unassigned) [Example 147] | 79.4 | 12.6 | –
3 | Cc1nc2cc(S(=O)(=O)N(C)c3ccc([C@H]4C[C@H](N5CCCCC5)C[C@@H](C(=O)Nc5ccc(C(F)(F)F)cc5F)[C@@H]4C(=O)O)cc3)ccc2n1C (relative stereo) [Example 349, rel-(1R,2R,4S,6S)-2-((2-fluoro-4-(trifluoromethyl)phenyl)carbamoyl)-4-(piperidin-1-yl)-6-(4-((N,1,2-trimethyl-1H-benzo[d]imidazole)-5-sulfonamido)phenyl)cyclohexane-1-carboxylic acid] | 251 | 12.6 | –
4 | Cc1nc2cc(S(=O)(=O)N(C)c3ccc([C@H]4CCC[C@@H](C(=O)Nc5ccc(C(F)(F)F)cc5F)[C@@H]4C(=O)O)cc3)ccc2n1C (single isomer, unassigned) [Example 84] | 158 | – | 5.3
5 | CN(c1ccc([C@H]2CCC[C@@H](C(=O)Nc3ccc(C(F)(F)F)cc3F)[C@@H]2C(=O)O)cc1)S(=O)(=O)c1ccc2occc2c1 [Example 93, (1R,2R,6S)-2-((2-fluoro-4-(trifluoromethyl)phenyl)carbamoyl)-6-(4-(N-methylbenzofuran-5-sulfonamido)phenyl)cyclohexane-1-carboxylic acid] | 2.51 | 2.51 | –
6 | Cc1nc2cc(S(=O)(=O)N(C)c3ccc([C@H]4CCC[C@@H](C(=O)Nc5ccc(C(F)(F)F)cc5F)[C@@H]4C(=O)O)c(F)c3)ccc2n1C (single isomer, unassigned) [Example 375] | 100 | – | 4.7
7 | C=C(F)C(=O)Nc1ccc([C@H]2CCC[C@@H](C(=O)Nc3ccc(C(F)(F)F)cc3F)[C@@H]2C(=O)O)cc1 (racemic) [Example 227, rac-(1R,2R,6S)-2-((2-fluoro-4-(trifluoromethyl)phenyl)carbamoyl)-6-(4-(2-fluoroacrylamido)phenyl)cyclohexane-1-carboxylic acid] | 79.4 | 15.8 | –
8 | CN(c1ccc([C@H]2CCC[C@@H](C(=O)Nc3ccc(C(F)(F)F)cc3F)[C@@H]2C(=O)O)cc1)S(=O)(=O)c1ccc(Br)c(O)c1 [Example 274, (1R,2S,6R)-2-(4-((4-bromo-3-hydroxy-N-methylphenyl)sulfonamido)phenyl)-6-((2-fluoro-4-(trifluoromethyl)phenyl)carbamoyl)cyclohexane-1-carboxylic acid] | 15.8 | 15.8 | –
9 | Cc1nc2cc(S(=O)(=O)N(C)c3ccc([C@@H]4CCC[C@H](C(=O)Nc5ccc(C(F)(F)F)cc5F)[C@H]4C(=O)O)nc3)ccc2n1C (single isomer, unassigned) [Example 160] | 50.1 | 15.8 | –
10 | O=C(O)[C@@H]1[C@@H](C(=O)Nc2ccc(C(F)(F)F)cc2F)CCC[C@H]1c1ccc(NS(=O)(=O)c2ccc3[nH]cnc3c2)cc1 (single isomer, unassigned) [Example 225] | 0.251 | 7.94 | –
11 | O=C(O)[C@@H]1[C@@H](c2ccc(-c3cncc(F)c3)cc2)CCC[C@H]1C(=O)Nc1ccc(C(F)(F)F)cc1F [Example 27, (1R,2R,6S)-2-((2-fluoro-4-(trifluoromethyl)phenyl)carbamoyl)-6-(4-(5-fluoropyridin-3-yl)phenyl)cyclohexane-1-carboxylic acid] | 12.6 | 3.98 | –
12 | Cc1nc2cc(S(=O)(=O)N(C)c3ccc([C@@H]4C[C@@H](N5CC[C@H](F)C5)C[C@H](C(=O)Nc5ccc(C(F)(F)F)cc5F)[C@H]4C(=O)O)cc3)ccc2n1C (stereo in doubt) [Example 379, rel-(1R*,2R*,4S*,6S*)-2-((2-fluoro-4-(trifluoromethyl)phenyl)carbamoyl)-4-((S)-3-fluoropyrrolidin-1-yl)-6-(4-((N,1,2-trimethyl-1H-benzo[d]imidazole)-5-sulfonamido)phenyl)cyclohexane-1-carboxylic acid] | 501 | 20 | –
13 | Cc1nc2cc(S(=O)(=O)N(C)c3ccc([C@@H]4C[C@H](OC[C@H]5CCOC5)C[C@H](C(=O)Nc5ccc(C(F)(F)F)cc5F)[C@H]4C(=O)O)cc3)ccc2n1C (stereo in doubt) [Example 318, (1R*,2R*,4R*,6S*)-2-((2-fluoro-4-(trifluoromethyl)phenyl)carbamoyl)-4-(((S)-tetrahydrofuran-3-yl)methoxy)-6-(4-((N,1,2-trimethyl-1H-benzo[d]imidazole)-5-sulfonamido)phenyl)cyclohexane-1-carboxylic acid] | 200 | 12.6 | –
14 | CN(c1ccc([C@H]2CCC[C@@H](C(=O)Nc3ccc(C(F)(F)F)cc3F)[C@@H]2C(=O)O)cc1)S(=O)(=O)c1c(Cl)cc(C(F)(F)F)cc1Cl [Example 104, (1R,2S,6R)-2-(4-((2,6-dichloro-N-methyl-4-(trifluoromethyl)phenyl)sulfonamido)phenyl)-6-((2-fluoro-4-(trifluoromethyl)phenyl)carbamoyl)cyclohexane-1-carboxylic acid] | 39.8 | 3.98 | –
15 | O=C(O)[C@@H]1[C@@H](c2ccc(-c3cccnc3)cc2)CCC[C@H]1C(=O)Nc1ccc(C(F)(F)F)cc1F [Example 8, (1R,2R,6S)-2-((2-fluoro-4-(trifluoromethyl)phenyl)carbamoyl)-6-(4-(pyridin-3-yl)phenyl)cyclohexane-1-carboxylic acid] | 3.98 | 7.94 | –
16 | Cc1nc2cc(S(=O)(=O)N(C)c3ccc([C@H]4C[C@](C)(O)C[C@@H](C(=O)Nc5ccc(C(F)(F)F)cc5F)[C@@H]4C(=O)O)cc3)ccc2n1C (racemic) [Example 357, rac-(1R,2R,4S,6S)-2-((2-fluoro-4-(trifluoromethyl)phenyl)carbamoyl)-4-hydroxy-4-methyl-6-(4-((N,1,2-trimethyl-1H-benzo[d]imidazole)-5-sulfonamido)phenyl)cyclohexane-1-carboxylic acid] | 10 | 1 | –
17 | Cc1nc2cc(S(=O)(=O)N(C)c3ccc([C@H]4CCC[C@@H](C(=O)Nc5ccc(C(F)(F)F)cc5F)[C@@H]4C(=O)O)cc3Br)ccc2n1C [Example 166, (1R,2S,6R)-2-(3-bromo-4-((N,1,2-trimethyl-1H-benzo[d]imidazole)-5-sulfonamido)phenyl)-6-((2-fluoro-4-(trifluoromethyl)phenyl)carbamoyl)cyclohexane-1-carboxylic acid] | 7.94 | 2.51 | –
18 | CCO[C@@H]1C[C@H](C(=O)Nc2ccc(C(F)(F)F)cn2)[C@@H](C(=O)O)[C@H](c2ccc(N(C)S(=O)(=O)c3ccc4c(c3)nc(C)n4C)cc2)C1 (relative stereo) [Example 156, rel-(1R,2R,4R,6S)-4-ethoxy-2-((5-(trifluoromethyl)pyridin-2-yl)carbamoyl)-6-(4-((N,1,2-trimethyl-1H-benzo[d]imidazole)-5-sulfonamido)phenyl)cyclohexane-1-carboxylic acid] | 126 | 25.1 | –
